# Assay results from article PMC8147781, “Discovery of Pyrrolidine-2,3-diones as Novel Inhibitors of P. aeruginosa PBP3” (Antibiotics, 2021).
# Values joined by “and” are separate entries in the source; they are usually repeats but may differ in a detail not shown here. Equal values may be shown once.
# Target: T1, PaPBP3 coated on a CM5 chip (Pseudomonas aeruginosa, UniProt G3XD46)
# T1 construct: P. aeruginosa PBP3 (amino acids 40 to 563); His-tag; made in house; host or cells: E. coli BL21 (DE3) Rosetta, plasmid pET41_PBP-3
# Assay: Surface plasmon resonance (SPR), steady-state analysis
# Type: binding
# Settings: 25 °C
# Procedure: Next, we confirmed the binding of the best inhibitors (analogues 34, 35, 40, 38 and 37) by surface plasmon resonance (SPR), using ^PaPBP3 coated on a CM5 chip as the ligand. The sensorgrams (Figure A1C and Figure A2C) indicated fast association and dissociation with all compounds tested. Dissociation constants (Kd) were determined via steady-state analysis using the maximum resonance signal obtained with a range of analyte concentrations.
# SPR experiments were performed at 25 °C by using a Biacore T200 instrument from Cytiva (Marlborough, MA, USA). Purified ^PaPBP3 was coated on a CM5 chip, that was activated with EDC/NHS (1-ethyl-3-(3-dimethylaminopropyl) carbodiimide/N-hydroxysuccinimide) beforehand and blocked with ethanolamine after protein attachment. We achieved a protein amount of 11.820 RU. For every analyte, two concentration series between 3.25 µM and 200 µM were prepared in the running buffer (13 mM NaCl, 257 µM KCl, 171 µM KH2PO4, 950 µM Na2HPO4, 0.05% Tween-20 and 5% DMSO, pH 7.4) in a 96 well plate. Prior to the injection, the baseline was determined using running buffer for 300 s. Then, the analytes were then associated for 100 s and dissociated for 300 s with a flow rate of 30 µL/min. A 30 s washing step with 50% DMSO was used after every injection to regenerate the chip. In the final step, ten different DMSO concentrations ranging from 4.0% to 5.8% were used as the internal solvent correction. Steady state analysis was performed by using the internal Biacore software and figures were prepared with Prism v.8 using the points of one concentration series, respectively.
# T1 sequence (G3XD46 40-563): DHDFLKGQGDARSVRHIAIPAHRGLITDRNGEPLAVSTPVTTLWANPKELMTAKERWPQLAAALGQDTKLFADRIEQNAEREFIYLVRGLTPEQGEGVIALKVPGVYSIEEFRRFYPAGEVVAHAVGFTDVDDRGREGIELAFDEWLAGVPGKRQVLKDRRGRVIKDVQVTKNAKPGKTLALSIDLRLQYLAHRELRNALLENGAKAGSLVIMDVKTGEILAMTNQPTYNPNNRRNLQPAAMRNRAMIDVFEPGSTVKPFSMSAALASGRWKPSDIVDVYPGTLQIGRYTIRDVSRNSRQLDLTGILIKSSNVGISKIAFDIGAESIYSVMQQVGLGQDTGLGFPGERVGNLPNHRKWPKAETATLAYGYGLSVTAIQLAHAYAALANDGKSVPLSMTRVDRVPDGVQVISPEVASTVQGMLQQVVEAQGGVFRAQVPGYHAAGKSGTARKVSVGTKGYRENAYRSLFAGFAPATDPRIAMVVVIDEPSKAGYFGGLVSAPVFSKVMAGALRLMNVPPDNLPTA
SMILES,Kd,Kd (µM) SPR
O=C(C1=C(O)C(=O)N(Cc2nc3ccccc3[nH]2)C1c1ccc(Cl)cc1)c1ccc(Br)cc1 (stereo not drawn) [Compound 38],62.7 µM,–
O=C(C1=C(O)C(=O)N(CCc2cc3ccccc3[nH]2)C1c1ccc(Cl)cc1)c1ccc(Br)cc1 (stereo not drawn) [Compound 37],454 µM,too high to conclude a specific binding
O=C(C1=C(O)C(=O)N(CCc2c[nH]c3ccccc23)C1c1ccc(Cl)cc1)c1ccc(Br)cc1 (stereo not drawn) [Compound 40],22.9 µM,–
"O=C(C1=C(O)C(=O)N(Cc2cc3ccccc3[nH]2)C1c1ccc(Cl)cc1)c1ccc(Br)cc1 (stereo not drawn) [Compound 34, 4-(4-bromobenzoyl)-5-(4-chlorophenyl)-3-hydroxy-1-(1H-indol-2-ylmethyl)-5H-pyrrol-2-one]",6.4 µM and 6.44 µM,–
O=C(C1=C(O)C(=O)N(Cc2cc3cc(Cl)ccc3[nH]2)C1c1ccc(Cl)cc1)c1ccc(Br)cc1 (stereo not drawn) [Compound 35],9.8 µM and 9.82 µM,–
